# Test results: US20260215425A1, “NITRIFICATION INHIBITORS” (The University of Melbourne, priority 2022, published 2026)
# Experiments:
# [1] = target: T1, hydroxylamine oxireductase (HOA) (Nitrosomonas europaea, UniProt Q50925); test: standard nitrification inhibition assay with NH2OH as substrate; assay type: cell-based, N. europaea; settings: substrate NH2OH 3 mM, [inhibitor]=0.3 mM, pH 7.5, 30° C., 60 min; read-out: % Inhibition NE
# T1 construct: N. europaea and N. multiformis contain naturally both enzymes; endogenous in cells; host or cells: N. europaea pure culture (whole cells in NaPB)
# T1 sequence (Q50925 25-570): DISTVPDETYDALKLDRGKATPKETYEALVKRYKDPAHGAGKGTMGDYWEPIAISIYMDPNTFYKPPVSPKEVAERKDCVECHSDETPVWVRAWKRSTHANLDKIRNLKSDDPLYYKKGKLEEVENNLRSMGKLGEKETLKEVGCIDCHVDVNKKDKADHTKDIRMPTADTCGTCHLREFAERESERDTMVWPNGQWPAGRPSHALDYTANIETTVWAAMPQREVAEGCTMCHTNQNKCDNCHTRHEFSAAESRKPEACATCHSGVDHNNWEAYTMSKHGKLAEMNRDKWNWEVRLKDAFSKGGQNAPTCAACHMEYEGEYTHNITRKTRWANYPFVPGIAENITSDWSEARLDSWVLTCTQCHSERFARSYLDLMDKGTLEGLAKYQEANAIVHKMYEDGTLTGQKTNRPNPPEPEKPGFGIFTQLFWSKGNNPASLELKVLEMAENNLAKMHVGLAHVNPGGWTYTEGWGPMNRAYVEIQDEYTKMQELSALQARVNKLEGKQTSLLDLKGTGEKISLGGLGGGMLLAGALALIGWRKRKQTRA
# soils B-E = test: soil incubation, N2O production in soils B-E
# Method: Soil incubations were performed in three replicates. Each sample consisted of 6 g of sieved soil (2 mm). The soil was air-dried after collection and pre-incubated prior to the experiment for seven days at 50% water holding capacity (WHC). The soil was transferred to a gas chromatography vial (22 mL volume, clear glass, Macherey-Nagel, Germany) and compacted densely to allow 5.5-6.2 cm headspace. The soil in the vials was incubated for a total of 21 days at a constant temperature of 21° C. with an open lid to ensure gas circulation. The control incubations contained ‘untreated’ soil (deionized H2O only) and ‘fertiliser only’ soil ((NH4)2SO4; 50 mg kg^−1 soil) and accompanied each measurement. (NH4)2SO4 was applied as an aqueous solution ([…]) and introduced on the soil surface to mimic field conditions. Three inhibitor solutions were prepared from DMP and 4-MPT at concentrations of 0.5 mol %, 2.5 mol % and 5 mol % of applied fertiliser-N and applied on the soil surface. The soils reached 60% WHC after the treatments had been applied and were kept at that moisture level by periodically adding deionized water to compensate for evaporation losses. At the day of measurement (day 1, 3, 5, 7, 14 and 21 after fertilization) the vials were closed gas-tight with a rubber septum and aluminium lid and opened again after each measurement. The N2O emission was analysed using a gas chromatograph equipped with an electron capture detector and flame ionization detector (GC-ECD/FID; Clarus 580, Perkin Elmer). A linear regression slope was used to calculate N2O—N production rates, F, according to eqn. 5:
# where ΔC/Δt represents the change of the N2O concentration over the time interval t in ppbv, V represents the headspace volume in L, M represents the molar mass of N in N2O, m represents the amount of soil in g dry weight, Vm represents the molar volume of ideal gases (22.414 L mol^−1) at 0° C. and 101.325 kPa, corrected for the gas sampler using T0 (273.15 K) and Ta (air temperature in K).
smiles,measurement,setting,value
"C#CCn1cc(C)nn1 [Compound 4-MPT, 4-Methyl-1-(prop-2-yn-1yl)-1H-1,2,3-triazole]",inhibition at 300 µM,[1],28 ± 3%
same,N2O production,"soils B-E; Soil B, 0.5 mol %, Day 1",0.058 ± 0.004 μg g^−1 soil h^−1
same,N2O production,"soils B-E; Soil B, 0.5 mol %, Day 3",0.009 ± 0.009 μg g^−1 soil h^−1
same,N2O production,"soils B-E; Soil B, 0.5 mol %, Day 5",0.000 ± 0.000 μg g^−1 soil h^−1
same,N2O production,"soils B-E; Soil B, 0.5 mol %, Day 7",−0.013 ± 0.013 μg g^−1 soil h^−1
same,N2O production,"soils B-E; Soil B, 0.5 mol %, Day 14",0.008 ± 0.008 μg g^−1 soil h^−1
same,N2O production,"soils B-E; Soil B, 0.5 mol %, Day 21",0.011 ± 0.011 μg g^−1 soil h^−1
same,N2O production,"soils B-E; Soil B, 2.5 mol %, Day 1",0.007 ± 0.007 μg g^−1 soil h^−1
same,N2O production,"soils B-E; Soil B, 2.5 mol %, Day 3",0.000 ± 0.000 μg g^−1 soil h^−1
same,N2O production,"soils B-E; Soil B, 2.5 mol %, Day 5",−0.007 ± 0.007 μg g^−1 soil h^−1
same,N2O production,"soils B-E; Soil B, 2.5 mol %, Day 7",−0.019 ± 0.019 μg g^−1 soil h^−1
same,N2O production,"soils B-E; Soil B, 2.5 mol %, Day 14",0.000 ± 0.000 μg g^−1 soil h^−1
same,N2O production,"soils B-E; Soil B, 2.5 mol %, Day 21",0.000 ± 0.000 μg g^−1 soil h^−1
same,N2O production,"soils B-E; Soil B, 5 mol %, Day 1",0.000 ± 0.000 μg g^−1 soil h^−1
same,N2O production,"soils B-E; Soil B, 5 mol %, Day 3",0.000 ± 0.000 μg g^−1 soil h^−1
same,N2O production,"soils B-E; Soil B, 5 mol %, Day 5",0.000 ± 0.000 μg g^−1 soil h^−1
same,N2O production,"soils B-E; Soil B, 5 mol %, Day 7",−0.048 ± 0.026 μg g^−1 soil h^−1
same,N2O production,"soils B-E; Soil B, 5 mol %, Day 14",0.000 ± 0.000 μg g^−1 soil h^−1
same,N2O production,"soils B-E; Soil B, 5 mol %, Day 21",0.000 ± 0.000 μg g^−1 soil h^−1
same,N2O production,"soils B-E; Soil C, 0.5 mol %, Day 1",0.119 ± 0.011 μg g^−1 soil h^−1
same,N2O production,"soils B-E; Soil C, 0.5 mol %, Day 3",0.062 ± 0.001 μg g^−1 soil h^−1
same,N2O production,"soils B-E; Soil C, 0.5 mol %, Day 5",0.059 ± 0.007 μg g^−1 soil h^−1
same,N2O production,"soils B-E; Soil C, 0.5 mol %, Day 7",0.054 ± 0.006 μg g^−1 soil h^−1
same,N2O production,"soils B-E; Soil C, 0.5 mol %, Day 14",0.119 ± 0.010 μg g^−1 soil h^−1
same,N2O production,"soils B-E; Soil C, 0.5 mol %, Day 21",0.107 ± 0.008 μg g^−1 soil h^−1
same,N2O production,"soils B-E; Soil C, 2.5 mol %, Day 1",0.042 ± 0.04 μg g^−1 soil h^−1
same,N2O production,"soils B-E; Soil C, 2.5 mol %, Day 3",0.000 ± 0.000 μg g^−1 soil h^−1
same,N2O production,"soils B-E; Soil C, 2.5 mol %, Day 5",0.011 ± 0.011 μg g^−1 soil h^−1
same,N2O production,"soils B-E; Soil C, 2.5 mol %, Day 7",0.031 ± 0.003 μg g^−1 soil h^−1
same,N2O production,"soils B-E; Soil C, 2.5 mol %, Day 14",0.012 ± 0.008 μg g^−1 soil h^−1
same,N2O production,"soils B-E; Soil C, 2.5 mol %, Day 21",0.019 ± 0.010 μg g^−1 soil h^−1
same,N2O production,"soils B-E; Soil C, 5 mol %, Day 1",0.017 ± 0.017 μg g^−1 soil h^−1
same,N2O production,"soils B-E; Soil C, 5 mol %, Day 3",0.000 ± 0.000 μg g^−1 soil h^−1
same,N2O production,"soils B-E; Soil C, 5 mol %, Day 5",0.000 ± 0.000 μg g^−1 soil h^−1
same,N2O production,"soils B-E; Soil C, 5 mol %, Day 7",0.024 ± 0.013 μg g^−1 soil h^−1
same,N2O production,"soils B-E; Soil C, 5 mol %, Day 14",0.023 ± 0.007 μg g^−1 soil h^−1
same,N2O production,"soils B-E; Soil C, 5 mol %, Day 21",0.000 ± 0.000 μg g^−1 soil h^−1
same,N2O production,"soils B-E; Soil D, 0.5 mol %, Day 1",0.029 ± 0.029 μg g^−1 soil h^−1
same,N2O production,"soils B-E; Soil D, 0.5 mol %, Day 3",0.058 ± 0.009 μg g^−1 soil h^−1
same,N2O production,"soils B-E; Soil D, 0.5 mol %, Day 5",0.004 ± 0.004 μg g^−1 soil h^−1
same,N2O production,"soils B-E; Soil D, 0.5 mol %, Day 7",0.037 ± 0.021 μg g^−1 soil h^−1
same,N2O production,"soils B-E; Soil D, 0.5 mol %, Day 14",0.037 ± 0.005 μg g^−1 soil h^−1
same,N2O production,"soils B-E; Soil D, 0.5 mol %, Day 21",0.045 ± 0.014 μg g^−1 soil h^−1
same,N2O production,"soils B-E; Soil D, 2.5 mol %, Day 1",0.015 ± 0.010 μg g^−1 soil h^−1
same,N2O production,"soils B-E; Soil D, 2.5 mol %, Day 3",0.020 ± 0.010 μg g^−1 soil h^−1
same,N2O production,"soils B-E; Soil D, 2.5 mol %, Day 5",0.000 ± 0.000 μg g^−1 soil h^−1
same,N2O production,"soils B-E; Soil D, 2.5 mol %, Day 7",0.037 ± 0.018 μg g^−1 soil h^−1
same,N2O production,"soils B-E; Soil D, 2.5 mol %, Day 14",0.000 ± 0.000 μg g^−1 soil h^−1
same,N2O production,"soils B-E; Soil D, 2.5 mol %, Day 21",0.000 ± 0.000 μg g^−1 soil h^−1
same,N2O production,"soils B-E; Soil D, 5 mol %, Day 1",0.000 ± 0.000 μg g^−1 soil h^−1
same,N2O production,"soils B-E; Soil D, 5 mol %, Day 3",0.027 ± 0.013 μg g^−1 soil h^−1
same,N2O production,"soils B-E; Soil D, 5 mol %, Day 5",0.000 ± 0.000 μg g^−1 soil h^−1
same,N2O production,"soils B-E; Soil D, 5 mol %, Day 7",0.020 ± 0.011 μg g^−1 soil h^−1
same,N2O production,"soils B-E; Soil D, 5 mol %, Day 14",0.000 ± 0.000 μg g^−1 soil h^−1
same,N2O production,"soils B-E; Soil D, 5 mol %, Day 21",0.000 ± 0.000 μg g^−1 soil h^−1
same,N2O production,"soils B-E; Soil E, 0.5 mol %, Day 1",0.007 ± 0.007 μg g^−1 soil h^−1
same,N2O production,"soils B-E; Soil E, 0.5 mol %, Day 3",0.011 ± 0.011 μg g^−1 soil h^−1
same,N2O production,"soils B-E; Soil E, 0.5 mol %, Day 5",0.000 ± 0.000 μg g^−1 soil h^−1
same,N2O production,"soils B-E; Soil E, 0.5 mol %, Day 7",0.000 ± 0.000 μg g^−1 soil h^−1
same,N2O production,"soils B-E; Soil E, 0.5 mol %, Day 14",0.000 ± 0.000 μg g^−1 soil h^−1
same,N2O production,"soils B-E; Soil E, 0.5 mol %, Day 21",0.000 ± 0.000 μg g^−1 soil h^−1
same,N2O production,"soils B-E; Soil E, 2.5 mol %, Day 1",0.008 ± 0.008 μg g^−1 soil h^−1
same,N2O production,"soils B-E; Soil E, 2.5 mol %, Day 3",0.008 ± 0.008 μg g^−1 soil h^−1
same,N2O production,"soils B-E; Soil E, 2.5 mol %, Day 5",0.000 ± 0.000 μg g^−1 soil h^−1
same,N2O production,"soils B-E; Soil E, 2.5 mol %, Day 7",0.000 ± 0.000 μg g^−1 soil h^−1
same,N2O production,"soils B-E; Soil E, 2.5 mol %, Day 14",0.000 ± 0.000 μg g^−1 soil h^−1
same,N2O production,"soils B-E; Soil E, 2.5 mol %, Day 21",0.000 ± 0.000 μg g^−1 soil h^−1
same,N2O production,"soils B-E; Soil E, 5 mol %, Day 1",0.012 ± 0.012 μg g^−1 soil h^−1
same,N2O production,"soils B-E; Soil E, 5 mol %, Day 3",0.000 ± 0.000 μg g^−1 soil h^−1
same,N2O production,"soils B-E; Soil E, 5 mol %, Day 5",0.000 ± 0.000 μg g^−1 soil h^−1
same,N2O production,"soils B-E; Soil E, 5 mol %, Day 7",0.000 ± 0.000 μg g^−1 soil h^−1
same,N2O production,"soils B-E; Soil E, 5 mol %, Day 14",0.000 ± 0.000 μg g^−1 soil h^−1
same,N2O production,"soils B-E; Soil E, 5 mol %, Day 21",0.000 ± 0.000 μg g^−1 soil h^−1
same,N2O production rate,"soils B-E; soil B, 0.5 mol % (lowest application rate), day 1",0.06 ng g^−1 soil h^−1
same,amount of N2O,"soils B-E; soil B, other than day 1 at the lowest application rate, over the duration of the experiment",below the detection limit
same,N2O relative to the amount released from the uninhibited soil,"soils B-E; soil C, 0.5 mol %",25%
same,N2O produced,"soils B-E; soil C, 0.5 mol %, across the duration of the incubation",about 0.12 ng h^1
same,production of N2O,"soils B-E; soil C, higher application rates (2.5 and 5 mol %)",nearly completely suppressed
same,slowing down of N2O production,"soils B-E; soil D, 0.5 mol %",60%
same,N2O production rate,"soils B-E; soil D, two higher application rates (2.5 and 5 mol %), from the start of the experiment",practically zero
same,N2O production beyond day 5,"soils B-E; soil E, all 4-MPT treatments (0.5, 2.5, 5 mol %)",no N2O production was detected
